Assay results taken from patent publication US4123552A, “Compositions for preserving crops and animal feedstuffs” (Chevron Research Company, priority 1975, dated 1978).
In brackets after ≈: the same amount, converted by molar mass.

Tests used:
[1] = test system: All Species; assay: Control of seed- and soil-borne pathogens during storage of corn seeds (Table IV), all species; type: cell-based, Rhizopus, Penicillium, Fusarium; details: relative to untreated check
Experimental: A variety of bis-esters was tested for the control of seed- and soil-borne pathogens during storage of corn seeds (Zea mays) by the following procedure.
(§1) A small amount of acetone was added to the bis-ester to make specific volume, plus a small portion of emulsifier making it into a slurry. This preparation was diluted with water to the desired concentration. Solution was then evenly distributed on the wall of a glass jar. High moisture feedcorn with natural infection was stored frozen after harvest until used for this test. The corn seeds were rolled in the jar until they were coated and the solution was completely absorbed on them.
(§2) Following the treatment, the corn seeds were plated on Potato Dextrose Agar plates. For comparison, untreated corn seeds were also plated. Propionic acid was also tested for comparison.
The percentage control of all species was based on the total sum average of mycelial growth in millimeters of all species in the treated seeds relative to the untreated check. The fast growing Rhizopus was evaluated 7 days after treatment, the other fungi after 14 days.

[2] = Solubility of insecticides in methylene bispropionate; type: physicochemical; details: solvent methylene bispropionate
Experimental: Methylene bispropionate was tested as a solvent for various insecticides. […] O,S-dimethylN-acetyl phosphoramidothioate was soluble in methylene bispropionate to the extent of 5 percent by weight. Chlordane was soluble in methylene bispropionate to the extent of at least 75 percent by weight.

[3] = test system: Rhizopus sp.; assay: Concentration for 90% control of pathogen on corn seeds (Table V), Rhizopus sp.; type: cell-based; details: 5 days after treatment
Experimental: as §1, §2
(§3) A variety of bis-esters was tested for the control of seed- and soil-borne pathogens during the storage of corn seeds (Zea mays) by the procedure of Example 11. For comparison, propionic acid was also tested.
(§4) Control of each pathogen was determined by mycelial growth in millimeters in the treated seeds relative to untreated seeds. Mycelial growth of Rhizopus species and Fusarium species was evaluated 5 days after treatment. Mycelial growth in Aspergillus niger was evaluated 14 days after treatment.
(§5) The bis-ester tested and the concentration of active ingredient in ounces per 100 lbs. of corn seeds for 90 percent control of each pathogen species are tabulated in Table V.

[4] = test system: Fusarium sp.; assay: Concentration for 90% control of pathogen on corn seeds (Table V), Fusarium sp.; type: cell-based; details: 5 days after treatment
Experimental: as §1, §2, §3, §4, §5

[5] = test system: Aspergillus niger; assay: Concentration for 90% control of pathogen on corn seeds (Table V), Aspergillus niger; type: cell-based; details: 14 days after treatment; for Conc. for 90% Control, Aspergillus niger: corn seeds
Experimental: as §1, §2, §3, §4, §5

[6] = test system: Streptococcus pyogenes; assay: Antimicrobial activity of MBP on nutrient agar, Streptococcus pyogenes; type: cell-based; details: read-out: Germistatic Concentration of MBP
Experimental: (§6) Microbiological tests were conducted to determine the antimicrobial activity of methylene bispropionate (MBP). The minimum concentration of MBP, capable of inhibiting the growth of five species of bacteria, two species of mold and one species of yeast was determined. Petri plates containing nutrient agar and various concentrations of MBP were inoculated with each of the test species. The identification of these organisms and the effective concentration of MBP inhibiting growth are shown below: […]

[7] = test system: Aspergillus niger; assay: Antimicrobial activity of MBP on nutrient agar, Aspergillus niger; type: cell-based; details: read-out: Germistatic Concentration of MBP
Experimental: as §6

[8] = test system: Trichophyton interdigitale; assay: Antimicrobial activity of MBP on nutrient agar, Trichophyton interdigitale; type: cell-based; details: read-out: Germistatic Concentration of MBP
Experimental: as §6

[9] = test system: Bacillus subtilis; assay: Antimicrobial activity of MBP on nutrient agar, Bacillus subtilis; type: cell-based; details: read-out: Germistatic Concentration of MBP
Experimental: as §6

[10] = Acute oral toxicity in white rats; details: rat, in vivo
From the text: Methylene bispropionate was subjected to acute oral toxicity studies using white rats.

[11] = test system: Candida albicans; assay: Antimicrobial activity of MBP on nutrient agar, Candida albicans; type: cell-based; details: read-out: Germistatic Concentration of MBP
Experimental: as §6

[12] = test system: Staphylococcus aureus; assay: Antimicrobial activity of MBP on nutrient agar, Staphylococcus aureus; type: cell-based; details: read-out: Germistatic Concentration of MBP
Experimental: as §6

[13] = test system: fungal growth; assay: Visual fungal growth rating on treated crops in ventilated cans; set-up: key: 1 = no growth, 10 = heavy uniform growth; details: 1-10 basis
Experimental: Methylene bispropionate was applied to a variety of crops at various dosages by spraying or in a mixer. Two ventilated cans were filled with each treated crop. The cans were then maintained at 70° F. ±5° F. Each can was periodically visually observed for fungal growth and the observations were translated into a growth rating on a 1-10 basis; 1 indicating no growth and 10 indicating heavy uniform growth. For comparison, two samples of each untreated crop were also tested. The crops employed, the percent weight methylene bispropionate (MBP) based on weight crop, and the fungal rating 2, 7-8 and 28-29 days after treatment are tabulated in Table III.

[14] = test system: Escherichia coli; assay: Antimicrobial activity of MBP on nutrient agar, Escherichia coli; type: cell-based; details: read-out: Germistatic Concentration of MBP
Experimental: as §6

[15] = test system: Pseudomonas aeruginosa; assay: Antimicrobial activity of MBP on nutrient agar, Pseudomonas aeruginosa; type: cell-based; details: read-out: Germistatic Concentration of MBP
Experimental: as §6

[16] = test system: high moisture corn; assay: Preservation of high moisture corn in ventilated cans (time until temperature exceeds room temperature); details: for Weeks Effective: corn 25 percent moisture, 70-72 F; for effectiveness in preservation of high moisture corn (in words): from Table II
Experimental: High moisture corn (25 percent moisture) was treated with various methylene and polyoxymethylene esters of propionic or acetic acid of various dosages. The esters were applied to the corn in a mixer for one minute at 32 RPM. Three replicate two gallon ventilated cans were filled with the treated corn. The cans were then held at a temperature of 70°-72° F. Temperature readings were taken semi-weekly by means of thermocouples in the center of each can. When the temperature exceeded constant room temperature for at least an 8-hour period the treatment was considered broken.

CCC(=O)OC(OC(=O)CC)c1ccccc1 [Benzylidene Bispropionate]
% Control All Species ([1]; 1.0 Oz./100 Lbs.): 46% | % Control All Species ([1]; 2.5 Oz./100 Lbs.): 54% | % Control All Species ([1]; 6.4 Oz./100 Lbs.): 79% | % Control All Species ([1]; 16 Oz./100 Lbs.): 91%

CCOP(=S)(OCC)Oc1ccc([N+](=O)[O-])cc1 [parathion, O,O-diethyl-O-p-nitrophenyl phosphorothioate]
miscibility with methylene bispropionate (in words) [2]: miscible with methylene bispropionate in all proportions

CCC(=O)OC(C)OC(=O)CC [Ethylidene Bispropionate]
% Control All Species ([1]; 1.0 Oz./100 Lbs.): 44% | % Control All Species ([1]; 2.5 Oz./100 Lbs.): 50% | % Control All Species ([1]; 6.4 Oz./100 Lbs.): 83% | % Control All Species ([1]; 16 Oz./100 Lbs.): 91%

CC(C)C(=O)OCOCOC(=O)C(C)C [Oxybismethylene Bisisobutyrate]
Conc. for 90% Control, Rhizopus sp. [3]: 1.2 oz./100 lbs. | Conc. for 90% Control, Fusarium sp. [4]: 0.88 oz./100 lbs. | % Control All Species ([1]; 1.0 Oz./100 Lbs.): 73% | % Control All Species ([1]; 2.5 Oz./100 Lbs.): 87% | % Control All Species ([1]; 6.4 Oz./100 Lbs.): 100% | % Control All Species ([1]; 16 Oz./100 Lbs.): 100% | Conc. for 90% Control, Aspergillus niger [5]: 0.88 oz./100 lbs.

CCC(=O)OCOC(=O)CC [Methylene Bispropionate]
MIC [6]: 700 µg/mL (≈ 4.37 mM) | MIC [7]: 800 µg/mL (≈ 4.99 mM) | Conc. for 90% Control, Rhizopus sp. [3]: 0.85 oz./100 lbs. | MIC [8]: 800 µg/mL (≈ 4.99 mM) | Conc. for 90% Control, Fusarium sp. [4]: 0.5 oz./100 lbs. | MIC [9]: 8000 µg/mL (≈ 49.9 mM) | % Control All Species ([1]; 1.0 Oz./100 Lbs.): 97% | % Control All Species ([1]; 2.5 Oz./100 Lbs.): 100% | % Control All Species ([1]; 6.4 Oz./100 Lbs.): 100% | % Control All Species ([1]; 16 Oz./100 Lbs.): 100% | LD50 [10]: 2800 mg/kg | inhibition of growth at 0.16 oz/100 lb ([5]; Aspergillus niger, 336 h, 0.16 oz./100 lbs.): 99% | Conc. for 90% Control, Aspergillus niger [5]: 0.16 oz./100 lbs. | MIC [11]: 1000 µg/mL (≈ 6.24 mM) | MIC [12]: 1000 µg/mL (≈ 6.24 mM) | Fungal Rating ([13]; Hay (4" seedlings), […] Wt MBP, 7-8 days): 0 | Fungal Rating ([13]; Hay (4" seedlings), […] Wt MBP, 28-29 days): 4 | Fungal Rating ([13]; Hay (4" seedlings), […] Wt MBP, 2 days): 0 | Fungal Rating ([13]; Sorghum (33% H2 O), 0.51 % Wt MBP, 7-8 days): 0 | Fungal Rating ([13]; Sorghum (33% H2 O), 0.51 % Wt MBP, 28-29 days): 0 | Fungal Rating ([13]; Sorghum (33% H2 O), 0.51 % Wt MBP, 2 days): 0 | Fungal Rating ([13]; Soybeans (26% H2 O), 0.51 % Wt MBP, 7-8 days): 0 | Fungal Rating ([13]; Soybeans (26% H2 O), 0.51 % Wt MBP, 28-29 days): 0 | Fungal Rating ([13]; Soybeans (26% H2 O), 0.51 % Wt MBP, 2 days): 0 | Fungal Rating ([13]; Wheat (26% H2 O), 0.6 % Wt MBP, 7-8 days): 0 | Fungal Rating ([13]; Wheat (26% H2 O), 0.6 % Wt MBP, 28-29 days): 0 | Fungal Rating ([13]; Wheat (26% H2 O), 0.6 % Wt MBP, 2 days): 0 | Fungal Rating ([13]; Wood Chips (freshly cut), 1.4 % Wt MBP, 7-8 days): 0 | Fungal Rating ([13]; Wood Chips (freshly cut), 1.4 % Wt MBP, 28-29 days): 0 | Fungal Rating ([13]; Wood Chips (freshly cut), 1.4 % Wt MBP, 2 days): 0 | MIC [14]: 6000 µg/mL (≈ 37.5 mM) | MIC [15]: 7000 µg/mL (≈ 43.7 mM) | Weeks Effective ([16]; 3 Oz/Bu): > 12 Weeks | Weeks Effective ([16]; 6 Oz/Bu): > 12 Weeks | effectiveness in preservation of high moisture corn (in words) [16]: remarkably superior to propionic acid in the preservation of high moisture corn

CCC(=O)OCOCOC(=O)CC [Oxybismethylene Propionate, Oxybismethylene Bispropionate]
Weeks Effective ([16]; 2 Oz/Bu): 6 Weeks | Weeks Effective ([16]; 3 Oz/Bu): 12 Weeks | Weeks Effective ([16]; 4 Oz/Bu): > 12 Weeks | Weeks Effective ([16]; 5 Oz/Bu): > 12 Weeks | effectiveness in preservation of high moisture corn (in words) [16]: remarkably superior to propionic acid in the preservation of high moisture corn

CC(=O)OCOCOC(C)=O [Oxybismethylene Acetate, Oxybismethylene Bisacetate]
Weeks Effective ([16]; 3 Oz/Bu): 5 Weeks | Weeks Effective ([16]; 6 Oz/Bu): > 12 Weeks

CC(C)C(=O)OCOC(=O)C(C)C [Methylene Bisisobutyrate]
Conc. for 90% Control, Rhizopus sp. [3]: 3.2 oz./100 lbs. | Conc. for 90% Control, Fusarium sp. [4]: 2.0 oz./100 lbs. | % Control All Species ([1]; 1.0 Oz./100 Lbs.): 98% | % Control All Species ([1]; 2.5 Oz./100 Lbs.): 99% | % Control All Species ([1]; 6.4 Oz./100 Lbs.): 100% | % Control All Species ([1]; 16 Oz./100 Lbs.): 98% | Conc. for 90% Control, Aspergillus niger [5]: * (No Control at 2.5 oz./100 lbs.)
